Data set [1] concerns MDA-MB-435 cells. Kind of data set: Drug distribution by fluorescence microscopy. It is filed as cell-based, human. The settings on record: for cellular distribution of fluorescence: 500 nM. How it is done:
Furthermore, once the trigger has fired the DOX fluorophore should appear nuclear.
Analysis of drug distribution by fluorescence microscopy: MDA-MB-435 cells in log phase growth were dissociated with trypsin-EDTA and counted. Cells were suspended in media at 8.3×10^4 cells/mL and 3 mL of cell solution was aliquoted into 6 well plates and allowed to adhere overnight. The cells were treated with 0.5 μM DOX, DOXSF, or DOX-TEG-TAM for various amounts of time (5 min, 20 min, 40 min, 1 h, and 3 h). Drug treatment was accomplished by addition of 30 μL of 100× drug solution (50 μM) to 3 mL of media which was mixed and immediately added to the cells.
Following drug treatment, the media was removed and cells were washed once with 3 mL of serum- and phenol red-free RPMI 1640 at room temperature and 3 mL of the same media was then added back to each well. The cells were then immediately analyzed by fluorescence microscopy. Each condition was performed individually to minimize the amount of time between drug treatment and fluorescence detection.

Data set [2] deals with MDA-MB-435 cells. Put plainly: Uptake, release and competition by flow cytometry. Type of data set: cell-based, human. The following applies: for decrease of uptake in the presence of tamoxifen: 10 μM tamoxifen competitor. On the procedure:
Additionally, uptake and release data were obtained for DOX, DOXSF, and DOX-TEG-TAM in estrogen receptor-negative MDA-MB-435 and MDA-MB-231 cells.
Competitive inhibition of drug uptake: If DOX-TEG-TAM targeting is AEBS mediated, the presence of a competitive ligand should inhibit uptake.
(§1) Uptake and release of DOX, DOXSF, and DOX-TEG-TAM: The uptake and release of DOX-TEG-TAM in breast cancer cells relative to DOX and untargeted DOXSF was performed as described with modifications. Breast cancer cells in log phase growth were dissociated with trypsin-EDTA, counted, resuspended in media at 1.5×10^5 cells/mL, and plated into six well plates (450,000 cells/well) and allowed to adhere overnight. The cells were treated with 0.5 μM DOX, DOXSF, or DOX-TEG-TAM for various amounts of time (20 min, 40 min, and 60 min). Drug treatment was accomplished by addition of 30 μL of 100× drug solution (50 μM) to 3 mL of media which was mixed and immediately added to the cells. For each time point, the media was removed, cells were trypsinized, and trypsinization was quenched with 3 mL phenol red-free RPMI 1640 media (no serum) at 4° C. Cells were pelleted by centrifugation at 300 g for 5 min at 10° C. The supernatant was decanted and the cells were re-suspended in 1 mL serum- and phenol red-free RPMI 1640 media and placed on ice.
(§2) For drug retention samples, the cells were treated for 1 h with 0.5 μM DOX, DOXSF, or DOX-TEG-TAM. Following drug treatment, the media was removed and replaced with 3 mL fresh, 37° C., full (containing serum and phenol red indicator) cell media and the cells were incubated for various times (0.5 h, 1 h, 3 h, and 6 h). Following the allotted release times, the cells were prepared as described above. Drug treatment was performed such that all cell samples would be prepared within 2 h.
(§3) The extent of drug uptake and retention was measured by flow cytometry. Cells were analyzed with excitation at 488 nm (15 mW Ar ion laser), with emission monitored between 570 and 600 nm. Instrument settings were optimized for each cell line and held constant for all experiments; 10,000 cells were analyzed for anthracycline fluorescence. The data are presented as the mean fluorescence for each condition with the background, drug-free cell fluorescence subtracted.
The cell samples were prepared and analyzed by flow cytometry as described above.

A further data set concerns MDA-MB-231. Kind of data set: Breast cancer cell growth inhibition, 4 h treatment. On the procedure: (§4) Breast cancer cell growth inhibition: The ER-targeted DOX-formaldehyde conjugates, 11a-c, were evaluated against four breast cancer cell lines that differ in terms of estrogen receptor and multidrug resistance expression. MCF-7 cells are human breast adenocarcinoma cells that express estrogen receptor at a level of 195,000 sites/cell. MCF-7/Adr cells are an ER-negative, doxorubicin-resistant variant of the parent MCF-7 that express the multidrug resistance (MDR) phenotype. MDA-MB-231 and MDA-MB-435 are ER-negative human breast adenocarcinoma and ductal carcinoma cells, respectively. All cytotoxins were formulated as 100× solutions in DMSO/1% AcOH and delivered to cells as 1% DMSO (0.01% AcOH) in cell culture medium. In all experiments cell treatment lasted 4 h.
(§5) In Vitro cellular growth inhibition experiments: The IC50 for the targeted formaldehyde conjugates and all control compounds were performed as previously described with minor modifications. All compounds were solubilized in dimethylsulfoxide containing 1% v/v acetic acid. The concentrations of all 100× DMSO/1% AcOH drug solutions was determined spectrophotometrically by absorbance at 480 nm (ε=[…]). […] For every experiment each drug level and controls were performed in hexuplicate; each experiment was performed in at least duplicate. Error bars represent one standard deviation about the mean for the six wells per lane measured for each drug concentration.

The next data set deals with MDA-MB-435. The data set is described as above. On the procedure: as §4, §5
Another data set relates to MCF-7/Adr cells. Described as above. On the procedure: as §4, §5
The subject of data set [3] is MCF-7 cells. The data set is described as above. How it is done: as §4, §5
For a further data set, the system named is Rtx-6 cells. Put plainly: Growth inhibition of Rtx-6 cells, 4 h treatment. It is filed as cell-based. On the procedure:
Effect of DOX-TEG-TAM on AEBS-negative Rtx-6 breast cancer cells: Rtx-6 cells, kindly provided by Dr. Marc Poirot (Toulouse, France), were evaluated as an AEBS-negative control cell line. […] The Rtx-6 cells were utilized to determine the effect of the absence of AEBS on the cytotoxicity and uptake of DOX, DOXSF, and DOX-TEG-TAM.
The IC50's are compared in Table 6 with those previously determined for MCF-7, MCF-7/Adr, MDA-MB-231 and MDA-MB-435 cells. The concentrations inhibiting 50% of cell growth following 4 h treatment with DOX, DOXSP, and DOX-TEG-TAM were 200 nM, 60 nM, and 70 nM, respectively.
Growth inhibition of Rtx-6 cells: The concentration inhibiting half the growth (IC50) was determined as previously described with minor modifications.

Data set [4] concerns MCF-7 cells. Kind of data set: Uptake and release by flow cytometry. Type of data set: cell-based, human. The settings on record: for drug uptake (DOX fluorophore): MCF-7, 500 nM, up to 1 h. How it is done: as §1, §2, §3
Setting [5] is: MCF-7/Adr (−/+/+), 4 h treatment.

As to `CC/C(=C(/c1ccc(O)cc1)c1ccc(OCCN(C)CCOCCOCCO/N=C/c2ccc(O)c(C(=O)NCN[C@H]3C[C@H](O[C@H]4C[C@](O)(C(=O)CO)Cc5c(O)c6c(c(O)c54)C(=O)c4c(OC)cccc4C6=O)O[C@@H](C)[C@H]3O)c2)cc1)c1ccccc1` [11c, E/Z-N-(2-Hydroxy-5-{[2-(2-{2-[(2-{4-[1-(4-hydroxy-phenyl)-2-phenyl-but-1-enyl]-phenoxy}-ethyl)-methyl-amino]-ethoxy}-ethoxy)-ethoxyimino]-methyl}-benzamide)-doxorubicin], the “cellular distribution of fluorescence” value in the data set with MDA-MB-435 cells [1] (20 min) is “cytosolic fluorescence was observed”; in the data set on MDA-MB-435 cells [1] (3 h), “predominantly nuclear”. For the same compound, the “fold uptake more than DOX” value with MDA-MB-435 cells [2] (MDA-MB-435) turned out to be 5 fold. Moreover, in the data set with MDA-MB-435 cells [2] (MDA-MB-435), the “fold uptake more than DOXSF” value is given as 3 fold. Besides, the “effect of estradiol on uptake” value with MDA-MB-435 cells [2] (MDA-MB-435, 20 nM estradiol) is reported as “no effect”. Further, in the data set on MDA-MB-435 cells [2] (MDA-MB-435, 0.5 μM drug, 1 h, 10 μM tamoxifen), the “uptake as % of uptake in the absence of competitor” value worked out at 47%. Further, the “fluorophore retention vs DOXSF or DOX” value with MDA-MB-435 cells [2] (MDA-MB-435, after 1 h treatment with 500 nM) was “retained to a greater extent”. For the same compound, the IC50 with MDA-MB-231 (MDA-MB-231 (−/+/−), 4 h treatment, listed as DOX-TEG-TAM) worked out at 30 ± 5 nM; in the data set with MDA-MB-435 (MDA-MB-435 (−/+/−), 4 h treatment, listed as DOX-TEG-TAM), 40 ± 6 nM; in the data set with MCF-7/Adr cells (setting [5]), 60 ± 9 nM; in the data set with MCF-7 cells [3] (MCF-7 (ER/AEBS/MDR +/+/−), 4 h treatment, listed as DOX-TEG-TAM) it was 40 ± 6 nM; in the data set on Rtx-6 cells it was 70 nM. Also, the “fold more active than doxorubicin” value in the data set on MCF-7/Adr cells (MCF-7/Adr) is 140 fold. For the same compound, in the data set on MCF-7/Adr cells (MCF-7/Adr), the “fold more cytotoxic than untargeted doxsaliform” value was found to be 28 fold. Further, the “drug uptake (DOX fluorophore)” value in the data set on MCF-7 cells [4] is recorded as 25 RFU. Besides, in the data set with MCF-7 cells [4] (MCF-7, 1 h, 500 nM), the “uptake relative to MDA-MB-435 cells” value is listed as “about 25%”. In the data set on MCF-7 cells [4] (MCF-7, drug release after 6 h), the fluorophore retention entry was “highest level of doxorubicin fluorophore retention”.

On to `COc1cccc2c1C(=O)c1c(O)c3c(c(O)c1C2=O)C[C@@](O)(C(=O)CO)C[C@@H]3O[C@H]1C[C@H](N)[C@H](O)[C@H](C)O1` [doxorubicin, reference compound], for which the “cellular distribution of fluorescence” value in the data set on MDA-MB-435 cells [1] (20 min) is “observed in the nucleus”; in the data set with MDA-MB-435 cells [1] (3 h) it was “exclusively nuclear”. Besides, the “decrease of uptake in the presence of tamoxifen” value with MDA-MB-435 cells [2] (MDA-MB-435, 0.5 μM drug, 1 h) is recorded as 8%. The IC50 with MDA-MB-231 (Homo sapiens, MDA-MB-231, 4 h) amounted to 300 ± 33 nM; with MDA-MB-435 (Homo sapiens, MDA-MB-435, 4 h) it was 150 ± 14 nM; with MCF-7/Adr cells (Homo sapiens, NCI/ADR-RES, 4 h), 10000 ± 1300 nM; in the data set on MCF-7 cells [3] (Homo sapiens, MCF7, 4 h) it was 200 ± 26 nM; in the data set on Rtx-6 cells, 200 nM. The “drug uptake (DOX fluorophore)” value with MCF-7 cells [4] amounted to 5 RFU.

For `COc1cccc2c1C(=O)c1c(O)c3c(c(O)c1C2=O)C[C@@](O)(C(=O)CO)C[C@@H]3O[C@H]1C[C@H](NCNC(=O)c2ccccc2O)[C@H](O)[C@H](C)O1` [doxsaliform, N-(2-Hydroxybenzamido-methyl)-doxorubicin], in the data set with MDA-MB-435 cells [1] (control experiment, 0.5 μM), the localization pattern result is reported as “exclusively nuclear”. Also, in the data set with MDA-MB-435 cells [2] (MDA-MB-435, 0.5 μM drug, 1 h), the “decrease of uptake in the presence of tamoxifen” value amounted to 6%. For the same compound, the “fold less cytotoxic than 11a-c” value in the data set on MDA-MB-231 (MDA-MB-231) and in the data set on MCF-7 cells [3] (MCF-7) was 2-3 fold in each case. Besides, the IC50 with MDA-MB-231 (MDA-MB-231 (−/+/−), 4 h treatment) amounted to 80 ± 9 nM; with MDA-MB-435 (MDA-MB-435 (−/+/−), 4 h treatment) it was 50 ± 9 nM; with MCF-7/Adr cells (setting [5]) it was 2000 ± 320 nM; in the data set on MCF-7 cells [3] (MCF-7 (ER/AEBS/MDR +/+/−), 4 h treatment), 70 ± 5 nM; in the data set with Rtx-6 cells, 60 nM. The “cytotoxicity relative to 11a-c” value with MDA-MB-435 (MDA-MB-435) is reported as “equally cytotoxic”. For the same compound, the “drug uptake (DOX fluorophore)” value in the data set with MCF-7 cells [4] is listed as 16 RFU.

The record behind these values is US20070275911A1, “Targeted Drug-Formaldehyde Conjugates and Methods of Making and Using the Same” (priority 2003, published 2007).
